In one data set the test system is HT-29 cell line. The experiment in a line: Cell cytotoxicity, MTT assay. In kind it is cell-based, human. The note with it: Homo sapiens, HT-29; MTT, 24 h. On the technique in general: Tetrazolium dyes change colour on reduction, which living cells bring about.
The next data set has as its target hCA IX (Homo sapiens, UniProt Q16790). The experiment in a line: biochemical.
The next data set deals with MCF-7 cell line. Put plainly: Cell cytotoxicity, MTT assay. In kind it is cell-based, human.
For another data set, the system named is PC-3 cell line. The experiment in a line: Cell cytotoxicity, MTT assay. The format is cell-based. The note with it: Homo sapiens, 24 h.
The next data set concerns HEK293T cell line. Put plainly: Cell cytotoxicity, MTT assay. The conditions noted are these: Homo sapiens, HEK-293T, 24 h, healthy cell line. The format is cell-based.

On to `Cc1ccc(C(C)C)cc1OCc1cn(CCCCCCCCCCCCOc2ccc3ccc(=O)oc3c2)nn1` [Compound 27, 7-((12-(4-((5-Isopropyl-2-methylphenoxy)methyl)-1H-1,2,3-triazol-1-yl)dodecyl)oxy)-2H-chromen-2-one], for which the melting point fell in the range of 80 to 81 °C. Further, the IC50 with HT-29 cell line stood at 29.6 ± 6.47 µM. The molecule further yielded a Ki at hCA IX of 0.0304 µM.

For `C=CCc1ccc(OCc2cn(CCCCOc3ccc4ccc(=O)oc4c3)nn2)c(OC)c1` [Compound 30, 7-(4-(4-((4-Allyl-2-methoxyphenoxy)methyl)-1H-1,2,3-triazol-1-yl)butoxy)-2H-chromen-2-one], the melting point was 73 to 74 °C. This molecule also gave an IC50 with HT-29 cell line of 41.8 ± 13.5 µM. For the same molecule, the IC50 with MCF-7 cell line (Homo sapiens, MCF7, 24 h) was found to be 51.2 ± 27 µM. For the same molecule, the IC50 in the data set with PC-3 cell line was 57.6 ± 23.9 µM. In the data set with HEK293T cell line, this molecule gave an IC50 of 26.8 ± 2.44 µM.

The molecule `Cc1ccc(C(C)C)cc1OCc1cn(CCCCCCCCCCOc2ccc3ccc(=O)oc3c2)nn1` [Compound 26, 7-((10-(4-((5-Isopropyl-2-methylphenoxy)methyl)-1H-1,2,3-triazol-1-yl)decyl)oxy)-2H-chromen-2-one] registered a melting point of 73 to 74 °C. In the data set on HT-29 cell line, this molecule yielded an IC50 of 40.8 ± 10.2 µM. Besides, the inhibitory constant (Ki) on hCA IX stood at 0.258 µM.

As to `CC1CCC(C(C)C)C(OCc2cn(CCOc3ccc4ccc(=O)oc4c3)nn2)C1` (stereo not shown) [Compound 36, 7-(2-(4-(((2-isopropyl-5-methylcyclohexyl)oxy)methyl)-1H-1,2,3-triazol-1-yl)ethoxy)-2H-chromen-2-one], the melting point fell in the range of 122 to 123 °C. Besides, the IC50 with HT-29 cell line was found to be 38.2 ± 12.1 µM.

`C=CCc1ccc(OCc2cn(CCCCCCCCCCOc3ccc4ccc(=O)oc4c3)nn2)c(OC)c1` [Compound 34, 7-((10-(4-((4-Allyl-2-methoxyphenoxy)methyl)-1H-1,2,3-triazol-1-yl)decyl)oxy)-2H-chromen-2-one] showed a melting point of 48 to 49 °C. For the same molecule, half-maximal inhibition in the data set with HT-29 cell line (IC50) required 25.7 ± 8.15 µM. The affinity at hCA IX, expressed as Ki, was 0.0281 µM.

With `C=CCc1ccc(OCc2cn(CCOc3ccc4ccc(=O)oc4c3)nn2)c(OC)c1` [Compound 28, 7-(2-(4-((4-Allyl-2-methoxyphenoxy)methyl)-1H-1,2,3-triazol-1-yl)ethoxy)-2H-chromen-2-one], the melting point is 118 to 119 °C. This molecule displayed an IC50 in the data set on HT-29 cell line of 25.8 ± 8.4 µM. This molecule also yielded a Ki at hCA IX of 0.0319 µM.

As to `C=CCc1ccc(OCCOc2ccc3ccc(=O)oc3c2)c(OC)c1` [Compound 60, 7-(2-(4-Allyl-2-methoxyphenoxy)ethoxy)-2H-chromen-2-one], the melting point lay in the range of 86 to 87 °C. In the data set with HT-29 cell line, this molecule showed an IC50 of over 80 µM. The molecule further came in with an IC50 in the data set with MCF-7 cell line (Homo sapiens, MCF7, 24 h) of 18.5 ± 3.59 µM. The same molecule had an IC50 with PC-3 cell line of 31.5 ± 8.71 µM. The molecule also returned an IC50 in the data set on HEK293T cell line of over 80 µM. In addition, at hCA IX, the Ki is 0.176 µM.

With `Cc1ccc(C(C)C)cc1OCCCCCCCCCCOc1ccc2ccc(=O)oc2c1` [Compound 58, 7-((10-(5-Isopropyl-2-methylphenoxy)decyl)oxy)-2H-chromen-2-one], the melting point fell in the range of 50 to 51 °C. The same molecule yielded an IC50 in the data set on HT-29 cell line of over 200 µM.

`C=CCc1ccc(OCc2cn(CCCCCCCCCOc3ccc4ccc(=O)oc4c3)nn2)c(OC)c1` [Compound 33, 7-((9-(4-((4-Allyl-2-methoxyphenoxy)methyl)-1H-1,2,3-triazol-1-yl)nonyl)oxy)-2H-chromen-2-one] had a melting point of 83 to 84 °C. Moreover, in the data set on HT-29 cell line, the IC50 was determined as 31.3 ± 10.9 µM. Also, the affinity on hCA IX, expressed as Ki, was 0.189 µM.

Consider `CC1CCC(C(C)C)C(OCc2cn(CCCOc3ccc4ccc(=O)oc4c3)nn2)C1` (stereo not shown) [Compound 37, 7-(3-(4-(((2-Isopropyl-5-methylcyclohexyl)oxy)methyl)-1H-1,2,3-triazol-1-yl)propoxy)-2H-chromen-2-one], for which the melting point was 78 to 79 °C. Further, the IC50 with HT-29 cell line is 39.9 ± 11.8 µM. In the data set with MCF-7 cell line (Homo sapiens, MCF7, 24 h), this molecule registered an IC50 of 18.4 ± 3.81 µM. For the same molecule, half-maximal inhibition in the data set with PC-3 cell line (IC50) was put at 29.1 ± 6.83 µM. Half-maximal inhibition in the data set with HEK293T cell line (IC50) was put at 24.2 ± 3.2 µM.

For `Cc1ccc(C(C)C)cc1OCCCCCCCCCCCCOc1ccc2ccc(=O)oc2c1` [Compound 59, 7-((12-(5-Isopropyl-2-methylphenoxy)dodecyl)oxy)-2H-chromen-2-one], the melting point lay in the range of 58 to 59 °C. Besides, the IC50 in the data set on HT-29 cell line is over 200 µM.

`CC1CCC(C(C)C)C(OCc2cn(CCCCOc3ccc4ccc(=O)oc4c3)nn2)C1` (stereo not shown) [Compound 38, 7-(4-(4-(((2-Isopropyl-5-methylcyclohexyl)oxy)methyl)-1H-1,2,3-triazol-1-yl)butoxy)-2H-chromen-2-one] registered a melting point of 75 to 76 °C. Further, in the data set on HT-29 cell line, the IC50 was 37.2 ± 11.6 µM. The same molecule came in with an inhibition constant Ki at hCA IX of 0.3 µM.

The molecule `Cc1ccc(C(C)C)c(OCc2cn(CCCCCCCCCCCCOc3ccc4ccc(=O)oc4c3)nn2)c1` [Compound 19, 7-((12-(4-((2-Isopropyl-5-methylphenoxy)methyl)-1H-1,2,3-triazol-1-yl)dodecyl)oxy)-2H-chromen-2-one] displayed a melting point of 68 to 69 °C. Further, the IC50 in the data set on HT-29 cell line came to 37.6 ± 11.7 µM. At hCA IX, this molecule yielded a Ki of 0.0218 µM.

`C=CCc1ccc(OCCCCCCCCCOc2ccc3ccc(=O)oc3c2)c(OC)c1` [Compound 65, 7-((9-(4-Allyl-2-methoxyphenoxy)nonyl)oxy)-2H-chromen-2-one] had a melting point of 56 to 57 °C. Moreover, the IC50 in the data set on HT-29 cell line turned out to be 39.4 ± 7.1 µM.

`Cc1ccc(C(C)C)cc1OCCCCOc1ccc2ccc(=O)oc2c1` [Compound 54, 7-(4-(5-Isopropyl-2-methylphenoxy)butoxy)-2H-chromen-2-one] registered a melting point of 74 to 75 °C. The molecule also had an IC50 in the data set with HT-29 cell line of 59.8 ± 6.73 µM.

`C=CCc1ccc(OCc2cn(CCCCCCCOc3ccc4ccc(=O)oc4c3)nn2)c(OC)c1` [Compound 32, 7-((7-(4-((4-Allyl-2-methoxyphenoxy)methyl)-1H-1,2,3-triazol-1-yl)heptyl)oxy)-2H-chromen-2-one] registered a melting point of 101 to 102 °C. The molecule also registered an IC50 in the data set with HT-29 cell line of 16.3 ± 5.34 µM. In addition, in the data set with MCF-7 cell line (Homo sapiens, MCF7, 24 h), the IC50 was over 200 µM. Moreover, it took 36.7 ± 29 µM to reach half-maximal inhibition in the data set on PC-3 cell line (IC50). This molecule also displayed an IC50 in the data set with HEK293T cell line of 40.6 ± 13.7 µM.

Regarding `Cc1ccc(C(C)C)cc1OCc1cn(CCCCCCCCCOc2ccc3ccc(=O)oc3c2)nn1` [Compound 25, 7-((9-(4-((5-Isopropyl-2-methylphenoxy)methyl)-1H-1,2,3-triazol-1-yl)nonyl)oxy)-2H-chromen-2-one], the melting point was 69 to 70 °C. Further, the half-inhibitory concentration (IC50) in the data set on HT-29 cell line was 47.6 ± 13.8 µM. This molecule also yielded an inhibitory constant (Ki) on hCA IX of 0.0897 µM.

Turning to `Cc1ccc(C(C)C)cc1OCCOc1ccc2ccc(=O)oc2c1` [Compound 52, 7-(2-(5-Isopropyl-2-methylphenoxy)ethoxy)-2H-chromen-2-one], the melting point was in the range of 172 to 173 °C. Moreover, in the data set with HT-29 cell line, the IC50 worked out at 74.2 ± 6.48 µM.

As for `Cc1ccc(C(C)C)c(OCCOc2ccc3ccc(=O)oc3c2)c1` [Compound 44, 7-(2-(2-Isopropyl-5-methylphenoxy)ethoxy)-2H-chromen-2-one], the melting point lay in the range of 181 to 182 °C. In the data set with HT-29 cell line, the IC50 is 55.6 ± 4.91 µM.

Molecule `C=CCc1ccc(OCc2cn(CCCCCCCCCCCCOc3ccc4ccc(=O)oc4c3)nn2)c(OC)c1` [Compound 35, 7-((12-(4-((4-Allyl-2-methoxyphenoxy)methyl)-1H-1,2,3-triazol-1-yl)dodecyl)oxy)-2H-chromen-2-one] had a melting point of 72 to 74 °C. This molecule also gave an IC50 in the data set on HT-29 cell line of 23.2 ± 6.94 µM. Besides, the Ki at hCA IX is 0.0299 µM.

As to `Cc1ccc(C(C)C)cc1OCc1cn(CCCCCCCOc2ccc3ccc(=O)oc3c2)nn1` [Compound 24, 7-((7-(4-((5-Isopropyl-2-methylphenoxy)methyl)-1H-1,2,3-triazol-1-yl)heptyl)oxy)-2H-chromen-2-one], the melting point fell in the range of 83 to 84 °C. For the same molecule, in the data set with HT-29 cell line, half-maximal inhibition (IC50) required 56.9 ± 18.2 µM. The IC50 in the data set with MCF-7 cell line (Homo sapiens, MCF7, 24 h) was over 200 µM. The same molecule showed an IC50 with PC-3 cell line of over 200 µM. The midpoint of inhibition in the data set on HEK293T cell line, the IC50, lay at 134 ± 60.4 µM. For the same molecule, affinity on hCA IX was put at a Ki of 0.0327 µM.

As to `C=CCc1ccc(OCCCCCCCOc2ccc3ccc(=O)oc3c2)c(OC)c1` [Compound 64, 7-((7-(4-Allyl-2-methoxyphenoxy)heptyl)oxy)-2H-chromen-2-one], the melting point was in the range of 62 to 63 °C. The IC50 with HT-29 cell line is over 80 µM.

Regarding `CC1CCC(C(C)C)C(OCCCCOc2ccc3ccc(=O)oc3c2)C1` (stereo not shown) [Compound 70, 7-(4-((2-Isopropyl-5-methylcyclohexyl)oxy)butoxy)-2H-chromen-2-one], the IC50 in the data set with HT-29 cell line is 14.7 ± 2.81 µM; in the data set on MCF-7 cell line (24 h), 4.53 ± 1.06 µM; with MCF-7 cell line (Homo sapiens, MCF7, 24 h), 7.53 µM; with PC-3 cell line, 24.8 ± 5.35 µM; with HEK293T cell line, 63.5 ± 11.4 µM. In addition, at hCA IX, the Ki stood at 0.142 µM.

`Cc1ccc(C(C)C)c(OCc2cn(CCCCCCCCCCOc3ccc4ccc(=O)oc4c3)nn2)c1` [Compound 18, 7-((10-(4-((2-Isopropyl-5-methylphenoxy)methyl)-1H-1,2,3-triazol-1-yl)decyl)oxy)-2H-chromen-2-one] showed a melting point of 72 to 73 °C. This molecule also yielded an IC50 in the data set with HT-29 cell line of 41.5 ± 14.2 µM. The molecule also displayed a Ki at hCA IX of 0.268 µM.

Turning to `Cc1ccc(C(C)C)c(OCCCCCCOc2ccc3ccc(=O)oc3c2)c1` [Compound 47, 7-((6-(2-Isopropyl-5-methylphenoxy)hexyl)oxy)-2H-chromen-2-one], the IC50 in the data set with HT-29 cell line is over 80 µM; in the data set with MCF-7 cell line (Homo sapiens, MCF7, 24 h), 18.4 ± 2.63 µM; in the data set on PC-3 cell line, 29.1 ± 6.02 µM; in the data set with HEK293T cell line it was over 80 µM. This molecule had a Ki at hCA IX of 0.117 µM.

Regarding `C=CCc1ccc(OCc2cn(CCCOc3ccc4ccc(=O)oc4c3)nn2)c(OC)c1` [Compound 29, 7-(3-(4-((4-Allyl-2-methoxyphenoxy)methyl)-1H-1,2,3-triazol-1-yl)propoxy)-2H-chromen-2-one], the melting point fell in the range of 88 to 89 °C. This molecule displayed an IC50 with HT-29 cell line of 23.5 ± 7.22 µM. Moreover, half-maximal inhibition with MCF-7 cell line (Homo sapiens, MCF7, 24 h) (IC50) required 20.6 ± 6.5 µM. For the same molecule, inhibition in the data set with PC-3 cell line was half-maximal at 32.4 ± 9.16 µM (IC50). The molecule further displayed an IC50 in the data set on HEK293T cell line of 34.1 ± 8.6 µM.

Take `C=CCc1ccc(OCCCOc2ccc3ccc(=O)oc3c2)c(OC)c1` [Compound 61, 7-(3-(4-Allyl-2-methoxyphenoxy)propoxy)-2H-chromen-2-one]: the melting point lay within 70 to 71 °C. In the data set with HT-29 cell line, this molecule showed an IC50 of over 80 µM.

One may read the IC50 as the concentration that gives 50% inhibition. Lower therefore signals inhibition by little substance. One may read the melting point as the temperature, or range, at which the solid turns liquid. Usually Ki stands for a dissociation constant, usually derived from enzyme kinetics or from competition with a known ligand.

The record behind these values is publication PMC9933483, “Tail-Approach-Based Design and Synthesis of Coumarin-Monoterpenes as Carbonic Anhydrase Inhibitors and Anticancer Agents” (ACS Omega, 2023).
